As usually defined, the Ki is the dissociation constant of the complex between target and ligand, obtained from inhibition or displacement. Lower therefore signals a stronger hold on the target.

Results on 2 molecules are retold here after BindingDB's records for doi:10.1111/j.1476-5381.1995.tb15923.x (Zeneca Pharmaceuticals, 1995).

For the experiment, the target named is Adenosine receptor A2a (Rattus norvegicus, UniProt P30543).
Sequence of Adenosine receptor A2a (P30543 whole entry): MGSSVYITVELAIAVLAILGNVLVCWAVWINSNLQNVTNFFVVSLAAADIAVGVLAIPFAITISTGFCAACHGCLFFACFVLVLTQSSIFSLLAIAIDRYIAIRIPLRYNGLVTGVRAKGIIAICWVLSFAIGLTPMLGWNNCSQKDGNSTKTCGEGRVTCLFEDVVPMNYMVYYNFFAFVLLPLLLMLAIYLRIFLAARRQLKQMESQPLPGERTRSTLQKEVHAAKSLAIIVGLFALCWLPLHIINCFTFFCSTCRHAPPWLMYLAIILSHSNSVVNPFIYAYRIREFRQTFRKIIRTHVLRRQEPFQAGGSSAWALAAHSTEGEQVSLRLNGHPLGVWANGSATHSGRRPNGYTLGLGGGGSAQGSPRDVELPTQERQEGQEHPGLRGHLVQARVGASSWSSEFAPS

As to `Cn1c(=O)c2[nH]c(-c3ccccc3)nc2n(C)c1=O` [1,3-Dimethyl-8-phenyl-3,9-dihydro-purine-2,6-dione], the Ki is > 10 µM.
Take `Cn1c(=O)c2[nH]c(-c3ccc(S(=O)(=O)O)cc3)nc2n(C)c1=O` [4-(1,3-Dimethyl-2,6-dioxo-2,3,6,7-tetrahydro-1H-purin-8-yl)-benzenesulfonic acid]: the Ki is > 10 µM.
